Results from patent US20170022171A1, “2,5-DISUBSTITUTED CYCLOPENTANECARBOXYLIC ACIDS AND THEIR USE” (Bayer Pharma Aktiengesellschaft, priority 2014, published 2017).

Experiments:
Format in all cases: biochemical
MMP-3 = biological target: T1, MMP-3 (Homo sapiens, UniProt P08254); experiment: In vitro MMP-3 inhibition test
T1 construct: purchased R&D Systems 513-MP
How it was run: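 APMA-activated recombinant MMP-3 (e.g. 2 nM final) preincubated with compound in 50 mM Tris/HCl pH 7.5, 10 mM CaCl2, 150 mM NaCl, 0.05% Brij-35; quenched Mca/Dnp peptide substrate (e.g. 10 μM) started the reaction. Fluorescence (ex 320/em 410 nm) followed e.g. 120 min at 32° C; IC50 at 50% signal.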

MMP-7 = biological target: T2, MMP-7 (Homo sapiens, UniProt P09237); experiment: In vitro MMP-7 inhibition test
T2 construct: purchased R&D Systems 907-MP
T2 sequence (P09237 95-267): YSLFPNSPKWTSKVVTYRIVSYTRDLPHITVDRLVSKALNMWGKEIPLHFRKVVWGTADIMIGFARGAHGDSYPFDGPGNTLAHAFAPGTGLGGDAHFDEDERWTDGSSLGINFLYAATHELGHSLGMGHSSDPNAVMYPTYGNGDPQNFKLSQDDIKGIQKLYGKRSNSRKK
How it was run: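 APMA-activated recombinant MMP-7 (e.g. 0.5 nM final) in Tris/HCl pH 7.5 with CaCl2, NaCl and Brij-35; started with quenched fluorogenic Mca-PLGL-Dpa(Dnp)-AR-NH2 substrate (e.g. 10 μM final). Fluorescence (ex 320/em 410 nm) followed e.g. over 120 min at 32° C; IC50 is the concentration giving 50% signal.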

MMP-8 = biological target: T3, MMP-8 (Homo sapiens, UniProt P22894); experiment: In vitro MMP-8 inhibition test
T3 construct: purchased R&D Systems 908-MP
T3 sequence (P22894 101-467): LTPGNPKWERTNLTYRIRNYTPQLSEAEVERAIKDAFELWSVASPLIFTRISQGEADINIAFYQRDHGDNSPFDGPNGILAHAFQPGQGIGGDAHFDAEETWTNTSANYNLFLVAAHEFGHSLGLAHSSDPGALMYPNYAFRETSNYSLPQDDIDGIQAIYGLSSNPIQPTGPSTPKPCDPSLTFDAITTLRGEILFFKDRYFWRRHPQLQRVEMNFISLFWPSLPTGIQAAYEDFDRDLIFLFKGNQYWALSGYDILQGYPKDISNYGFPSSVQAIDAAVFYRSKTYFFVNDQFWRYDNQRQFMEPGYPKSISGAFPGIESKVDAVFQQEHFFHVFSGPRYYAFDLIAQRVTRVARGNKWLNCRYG
How it was run: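 APMA-activated recombinant MMP-8 (final e.g. 0.5 nM) preincubated with compound in DMSO (e.g. 1 nM–30 μM) in 50 mM Tris/HCl pH 7.5, 10 mM CaCl2, 150 mM NaCl, 0.05% Brij-35. Reaction started with quenched Mca-Pro-Leu-Gly-Leu-Dpa(Dnp)-Ala-Arg-NH2 substrate (e.g. 10 μM); fluorescence (ex 320/em 410 nm) followed e.g. 120 min at 32° C; IC50 at 50% signal.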

MMP-13 = biological target: T4, MMP-13 (Homo sapiens, UniProt P45452); experiment: In vitro MMP-13 inhibition test
T4 construct: purchased R&D Systems 511-MP
How it was run: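 APMA-activated recombinant MMP-13 (e.g. 0.1 nM final) in 50 mM Tris/HCl pH 7.5, 10 mM CaCl2, 150 mM NaCl, 0.05% Brij-35 with Mca-PLGL-Dpa(Dnp)-AR-NH2 substrate (e.g. 10 μM final). Fluorescence (ex 320/em 410 nm) followed e.g. 120 min at 32 °C; IC50 at 50% signal.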

MMP-16 = biological target: T5, MMP-16 (Homo sapiens, UniProt P51512); experiment: In vitro MMP-16 inhibition test
T5 construct: purchased R&D Systems 1785-MP
T5 sequence (P51512 120-564 limits assumed): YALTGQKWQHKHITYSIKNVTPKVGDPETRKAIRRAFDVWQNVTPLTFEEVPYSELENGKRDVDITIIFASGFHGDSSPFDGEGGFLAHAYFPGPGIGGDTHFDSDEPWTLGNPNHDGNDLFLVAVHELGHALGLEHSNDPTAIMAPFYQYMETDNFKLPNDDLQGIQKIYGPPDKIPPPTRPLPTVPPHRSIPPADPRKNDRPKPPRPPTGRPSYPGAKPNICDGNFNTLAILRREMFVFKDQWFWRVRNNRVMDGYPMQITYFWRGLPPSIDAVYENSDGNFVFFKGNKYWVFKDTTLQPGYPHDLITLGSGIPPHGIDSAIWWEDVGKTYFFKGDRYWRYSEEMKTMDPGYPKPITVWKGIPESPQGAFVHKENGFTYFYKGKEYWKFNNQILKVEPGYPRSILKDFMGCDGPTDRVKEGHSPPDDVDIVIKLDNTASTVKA
How it was run: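 Furin-activated recombinant MMP-16 (e.g. 1 nM) in 50 mM Tris/HCl pH 7.5, 10 mM CaCl2, 150 mM NaCl and 0.05% Brij-35 received compound in DMSO (e.g. 1 nM–30 μM), then 5 μM Mca-Lys-Pro-Leu-Gly-Leu-Dpa(Dnp)-Ala-Arg-NH2. Fluorescence (ex 320/em 410 nm) was followed, e.g. over 120 min at 32 °C. IC50 is the concentration halving the signal.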

T1 sequence (P08254 100-477): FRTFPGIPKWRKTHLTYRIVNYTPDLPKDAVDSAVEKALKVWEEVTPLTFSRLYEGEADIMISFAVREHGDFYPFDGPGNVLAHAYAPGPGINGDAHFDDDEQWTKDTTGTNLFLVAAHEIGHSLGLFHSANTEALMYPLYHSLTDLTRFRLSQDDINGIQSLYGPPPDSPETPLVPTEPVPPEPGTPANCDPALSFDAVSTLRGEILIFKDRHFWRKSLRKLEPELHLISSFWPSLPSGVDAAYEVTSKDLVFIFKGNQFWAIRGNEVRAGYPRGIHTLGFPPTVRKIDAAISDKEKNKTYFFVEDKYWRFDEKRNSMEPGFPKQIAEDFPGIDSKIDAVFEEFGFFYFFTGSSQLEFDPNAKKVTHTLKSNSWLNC

IC50 (MMP-3)	IC50 (MMP-7)	IC50 (MMP-8)	IC50 (MMP-13)	IC50 (MMP-16)	Compound
170 nM	340 nM	74 nM	2300 nM	3600 nM	O=C(O)[C@@H]1[C@@H](Cn2nnc3ccc(C(F)(F)F)cc3c2=O)CC[C@H]1C(=O)c1ccc(SCc2ccccc2)cc1 (single isomer, unassigned) [Example 75, (+)-(1RS,2RS,5SR)-2-[4-(Benzylsulphanyl)benzoyl]-5-{[4-oxo-6-(trifluoromethyl)-1,2,3-benzotriazin-3(4H)-yl]methyl}cyclopentanecarboxylic acid]
100 nM	150 nM	41 nM	770 nM	3800 nM	O=C(O)[C@@H]1[C@@H](Cn2nnc3ccc(C(F)(F)F)cc3c2=O)CC[C@H]1C(=O)c1ccc(SCc2cccc(Cl)c2)cc1 (single isomer, unassigned) [Example 77, (+)-(1RS,2RS,5SR)-2-{4-[(3-Chlorobenzyl)sulphanyl]benzoyl}-5-{[4-oxo-6-(trifluoromethyl)-1,2,3-benzotriazin-3(4H)-yl]methyl}cyclopentanecarboxylic acid]
150 nM	200 nM	52 nM	840 nM	5500 nM	O=C(O)[C@@H]1[C@@H](Cn2nnc3ccc(C(F)(F)F)cc3c2=O)CC[C@H]1C(=O)c1ccc(SCc2ccc(Cl)c(Cl)c2)cc1 (single isomer, unassigned) [Example 80, (+)-(1RS,2RS,5SR)-2-{4-[(3,4-Dichlorobenzyl)sulphanyl]benzoyl}-5-{[4-oxo-6-(trifluoromethyl)-1,2,3-benzotriazin-3(4H)-yl]methyl}cyclopentanecarboxylic acid]
150 nM	110 nM	2.4 nM	27 nM	110 nM	Cc1ccc2nnn(C[C@H]3CC[C@@H](C(=O)c4ccc(OCc5ccccc5)cc4)[C@@H]3C(=O)O)c(=O)c2c1 (single isomer, unassigned) [Example 92, (+)-(1RS,2RS,5SR)-2-[4-(Benzyloxy)benzoyl]-5-[(6-methyl-4-oxo-1,2,3-benzotriazin-3(4H)-yl)methyl]cyclopentanecarboxylic acid]
680 nM	330 nM	64 nM	410 nM	670 nM	Cc1cccc(COc2ccc(C(=O)[C@@H]3CC[C@H](Cn4nnc5ccc(C)cc5c4=O)[C@H]3C(=O)O)cc2)c1 (single isomer, unassigned) [Example 98, (+)-(1RS,2RS,5SR)-2-{4-[(3-Methylbenzyl)oxy]benzoyl}-5-[(6-methyl-4-oxo-1,2,3-benzotriazin-3(4H)-yl)methyl]cyclopentanecarboxylic acid]
880 nM	720 nM	29 nM	210 nM	880 nM	Cc1ccc2nnn(C[C@H]3CC[C@@H](C(=O)c4ccc(OCc5cccc(C(F)(F)F)c5)cc4)[C@@H]3C(=O)O)c(=O)c2c1 (single isomer, unassigned) [Example 101, (+)-(1RS,2SR,5RS)-2-[(6-Methyl-4-oxo-1,2,3-benzotriazin-3(4H)-yl)methyl]-5-(4-{[3-(trifluoromethyl)benzyl]oxy}benzoyl)cyclopentanecarboxylic acid]
260 nM	270 nM	31 nM	200 nM	540 nM	Cc1ccc2nnn(C[C@H]3CC[C@@H](C(=O)c4ccc(OCc5cccc(Cl)c5)cc4)[C@@H]3C(=O)O)c(=O)c2c1 (single isomer, unassigned) [Example 104, (+)-(1RS,2RS,5SR)-2-{4-[(3-Chlorobenzyl)oxy]benzoyl}-5-[(6-methyl-4-oxo-1,2,3-benzotriazin-3(4H)-yl)methyl]cyclopentanecarboxylic acid]
730 nM	200 nM	19 nM	150 nM	650 nM	COc1cccc(COc2ccc(C(=O)[C@@H]3CC[C@H](Cn4nnc5ccc(C)cc5c4=O)[C@H]3C(=O)O)cc2)c1 (single isomer, unassigned) [Example 107, (+)-(1RS,2RS,5SR)-2-{4-[(3-Methoxybenzyl)oxy]benzoyl}-5-[(6-methyl-4-oxo-1,2,3-benzotriazin-3(4H)-yl)methyl]cyclopentanecarboxylic acid]
920 nM	1200 nM	120 nM	260 nM	2100 nM	Cc1ccc2nnn(C[C@H]3CC[C@@H](C(=O)c4ccc(OCc5cccc(OC(F)(F)F)c5)cc4)[C@@H]3C(=O)O)c(=O)c2c1 (single isomer, unassigned) [Example 110, (+)-(1RS,2SR,5RS)-2-[(6-Methyl-4-oxo-1,2,3-benzotriazin-3(4H)-yl)methyl]-5-(4-{[3-(trifluoromethoxy)benzyl]oxy}benzoyl)cyclopentanecarboxylic acid]
110 nM	100 nM	4 nM	74 nM	260 nM	Cc1ccc2nnn(C[C@H]3CC[C@@H](C(=O)c4ccc(OCC5CCCCC5)cc4)[C@@H]3C(=O)O)c(=O)c2c1 (single isomer, unassigned) [Example 117, (+)-(1RS,2RS,5SR)-2-[4-(Cyclohexylmethoxy)benzoyl]-5-[(6-methyl-4-oxo-1,2,3-benzotriazin-3(4H)-yl)methyl]cyclopentanecarboxylic acid]
410 nM	350 nM	18 nM	300 nM	1900 nM	CCCCCCOc1ccc(C(=O)[C@@H]2CC[C@H](Cn3nnc4ccc(C)cc4c3=O)[C@H]2C(=O)O)cc1 (single isomer, unassigned) [Example 121, (+)-(1RS,2RS,5SR)-2-[4-(Hexyloxy)benzoyl]-5-[(6-methyl-4-oxo-1,2,3-benzotriazin-3(4H)-yl)methyl]cyclopentanecarboxylic acid]
280 nM	79 nM	9.1 nM	190 nM	890 nM	COC(=O)Nc1cccc(COc2ccc(C(=O)[C@@H]3CC[C@H](Cn4nnc5ccc(C(F)(F)F)cc5c4=O)[C@H]3C(=O)O)cc2)c1 (stereo in doubt) [Example 31, (+)-(1RS,2RS,5SR)-2-[4-({3-[(Methoxycarbonyl)amino]benzyl}oxy)benzoyl]-5-{[4-oxo-6-(trifluoromethyl)-1,2,3-benzotriazin-3(4H)-yl]methyl}cyclopentanecarboxylic acid]
250 nM	300 nM	43 nM	620 nM	2200 nM	(+)-(1RS,2RS,5SR)-2-{4-[(3,4-Dichlorobenzyl)oxy]benzoyl}-5-{[4-oxo-6-(trifluoromethyl)-1,2,3-benzotriazin-3(4H)-yl]methyl}cyclopentanecarboxylic acid [Example 28]
1300 nM	1000 nM	150 nM	6600 nM	14000 nM	(+)-(1RS,2RS,5SR)-2-{4-[Cyclohexyl)methyl)sulphanyl]benzoyl}-5-{[4-oxo-6-(trifluoromethyl)-1,2,3-benzotriazin-3(4H)-yl]methyl}cyclopentanecarboxylic acid [Example 86]
450 nM	160 nM	260 nM	2800 nM	> 40000 nM	(+)-(1RS,2SR,5RS)-2-{[4-Oxo-6-(trifluoromethyl)-1,2,3-benzotriazin-3(4H)-yl]methyl}-5-{4-[(2-phenylethy)sulphanyl]benzoyl}cyclopentanecarboxylic acid [Example 83]

Compound	IC50 (MMP-3)	IC50 (MMP-7)	IC50 (MMP-8)	IC50 (MMP-13)	IC50 (MMP-16)
CCCCOc1ccc(C(=O)[C@@H]2CC[C@H](Cn3nnc4ccc(C(F)(F)F)cc4c3=O)[C@H]2C(=O)O)cc1 (single isomer, unassigned) [Example 67, (+)-(1RS,2RS,5SR)-2-(4-Butoxybenzoyl)-5-{[4-oxo-6-(trifluoromethyl)-1,2,3-benzotriazin-3(4H)-yl]methyl}cyclopentanecarboxylic acid]	140 nM	120 nM	1.6 nM	270 nM	180 nM
